According to patent US8329697B2, “Imidizo[1,2-A]pyrazines useful as AHCY hydrolase inhibitors” (Merck Sharp & Dohme Corp., priority 2008, dated 2012):

Columns and labels:
[1] = target: AHCY enzyme (UniProt P23526); experiment: In vitro AHCY activity assay (ThioGlo1 fluorescence); assay type: biochemical; settings: recombinant expressed human or mouse AHCY enzyme; SAH substrate; ThioGlo1 readout
Experimental: In vitro AHCY Activity Assay
The AHCY activity of the compounds of the invention can be measured by the following in vitro assay.
The AHCY enzyme assay is based on the principle of fluorescence emission following incubation of a reactive dye with the products of an AHCY catalyzed reaction. The reactive dye (Thioglo1) binds homocysteine through its thiol-containing moiety. The products of the AHCY catalyzed reaction, adenosine and homocysteine, are produced from the hydrolysis of SAH (s-adenosylhomocysteine) through AHCY's hydrolase activity.
The reaction is optimized in 96-, 384-, 1536- and 3456-assay plate formats with recombinant expressed human or mouse AHCY enzyme. When run under initial velocity conditions, the assay is suitable for IC50 and % inhibition calculations.
• 1) ThioGlo1 (catalog 595501, Calbiochem); 100 mM in DMSO • 2) SAH (catalog A-9384, Sigma); 4.69 mM with 0.06 N HCl • 3) Aristeromycin (catalog A-0928, Sigma); 100 mM in DMSO • 4) NAD (catalog 43410, Sigma); 14.5 mM in water • 5) EDTA in 500 mM pH 8 (catalog BP2482-100, Fisher) • 6) DTT stock 200 mM in water • 7) AHCY enzyme (diluted with 100 mM tris pH7.5) Dilutions immediately prior to use: • 1. SAH 750 μM (10×) (dilute with 100 mM Iris pH 7.5) • 2. Aristeromycin (10×) (dilute to 1 mM with 100 mM Tris pH7.5) • 3. ThioGlo1 (10×) (dilute to 100 μM in Tris pH7.5) • 4. […] Read plate (Ex 380 Em 510)

[2] = tested on: AHCY in HEK293 and/or SH-SY5Y cells; experiment: Cell-based assay of AHCY inhibition (secreted homocysteine); settings: secreted homocysteine from Hek293 or SH-SY5Y cells, 72 hrs compound treatment
Description: Cell-Based Assay of AHCY Inhibition
The AHCY activity of the compounds of the invention can be measured by the following cell-based assay.
Post treatment collection of the adherent Hek293 and/or SH-SY5Y cells is also made for a viability and proliferation measure. Since the amount of secreted homocysteine is limited by the amount of SAH that is converted to homocysteine in the cells and its subsequent secretion, an EC50 measure and % inhibition relative to DMSO control cells can be made. Since the amount of secreted metabolites such as homocysteine can also be related to the absolute and cellular viability, an MTT (3-(4,5-Dimethylthiazol-2-yl)-2,5-diphenyltetrazolium bromide) measure of proliferation and relative cytotoxicty (as compared to control conditions) may also be made.
• 1. The day before compound treatment, plate 20,000 cells (Hek293 or SH-SY5Y) in 96 well cell culture treated plates in 100 μl of cell culture media (DMEM and 10% fetal bovine serum). • 2. Add fresh media plus compound (and DMSO treated controls) for 72 hrs. • 3. Collect conditioned media for measurement of secreted homocysteine and perform viability/proliferation assay on adherent cells. Measure of Secreted Homocysteine: • 1. […]
a. […] Detection: Fluorescence: Excitation 385 nm, Emission 515 nm • v. […]
b. […] absorbance at 550 nm and 690 nM. • 6. Express readout as 550 nM-690 nM.

Row | Compound | IC50 [1] [nM] | IC50 [2] [nM]
1 | Nc1nccn2c([C@@H]3CC[C@@H](O)[C@H]3O)cnc12 [Example 2, (1R,2S,3S)-3-(8-aminoimidazo[1,2-a]pyrazin-3-yl)cyclopentane-1,2-diol] | 692 | 1.4
2 | Nc1nccn2c([C@@H]3C=C(CO)[C@@H](O)[C@H]3O)cnc12 [Example 1, (1S,2R,5S)-5-(8-aminoimidazo[1,2-a]pyrazin-3-yl)-3-(hydroxymethyl)cyclopent-3-ene-1,2-diol] | 4 | 4
